Assay results: patent publication US4312867A, “Antibacterial compounds, processes for their preparation and compositions containing them” (Beecham Group Limited, priority 1979, dated 1982)
In brackets after ≈: the same amount, converted by molar mass.

Columns and labels:
M bovis ATCC 25025 = assay: in vitro anti-mycoplasmal MIC, Friis' agar (Table 3); format: cell-based
Protocol: (§1) The minimum inhibitory concentrations (MIC) of the examples were determined by either:
(§2) or (ii) by serial dilution in Friis' agar medium.

M bovis NCTC 10131 = assay: as above; format: cell-based
Protocol: as §1, §2

[1] = Mean serum concentrations in neonatal piglets after intramuscular or oral administration; format: in vivo; conditions: pig, 50 mg/kg
Protocol: (f) Mean serum concentrations in neonatal piglets after intramuscular or oral administration at 50 mg/kg of 6-sulphamoylhexyl monate A
Blood levels were assessed in neonatal piglets (2 to 4 animals per group and mean bodyweights about 2 kg). The dose was 50 mg/kg (dose solution=25 mg/ml in 25% ethanol). Doses were given by intramuscular injection and orally by stomach tube. Piglets were bled at intervals up to 6 and at 24 hours, and serum assayed microbiologically (B. subtilis ATCC 6633).

Past haemolytica PA5 = assay: MIC veterinary bacteria (Table 2), serial dilution in agar; format: cell-based; conditions: diagnostic sensitivity test agar
M. dispar NCTC 10125 = assay: anti-mycoplasmal MIC, Friis broth solidified with agarose (Table 4); format: cell-based; conditions: 144 h, 6 days at 37° C.
Protocol: The values were determined in Friis broth solidifed with 0.9% agarose. The inoculum was 10^3 to 10^5 CFV and the MIC's were recorded after 6 days incubation at 37° C.

C/C(=C\C(=O)OCCCCCCS(N)(=O)=O)CC1OCC(CC2OC2C(C)C(C)O)C(O)C1O (centres unmarked) [Example 2, 6-Sulphamoylhexyl monate A]
MIC (M bovis ATCC 25025): < 0.02 mg/L
MIC (M bovis NCTC 10131): < 0.02 mg/L
concentration at 10 min ([1]; im): 31.4 µg/mL
concentration at 20 min ([1]; im): 31.2 µg/mL
concentration at 40 min ([1]; im): 23.7 µg/mL
concentration at 1 h ([1]; im): 17.3 µg/mL
concentration at 2 h ([1]; im): 9.2 µg/mL
concentration at 3 h ([1]; im): 3.2 µg/mL
concentration at 4 h ([1]; im): 1.02 µg/mL
concentration at 5 h ([1]; im): < 0.6 µg/mL
concentration at 10 min ([1]; po): 5.9 µg/mL
concentration at 20 min ([1]; po): 8.3 µg/mL
concentration at 40 min ([1]; po): 8.6 µg/mL
concentration at 1 h ([1]; po): 5.9 µg/mL
concentration at 2 h ([1]; po): 1.8 µg/mL
concentration at 3 h ([1]; po): 1.5 µg/mL
concentration at 4 h ([1]; po): 0.74 µg/mL
concentration at 5 h ([1]; po): < 0.51 µg/mL

C/C(=C\C(=O)OCCCS(=O)(=O)N(C)C)CC1OCC(CC2OC2C(C)C(C)O)C(O)C1O (centres unmarked) [Example 4, 3-N,N-Dimethylsulphamoylpropyl monate A]
MIC (Past haemolytica PA5): 10 mg/L (≈ 20.3 µM)

C/C(=C\C(=O)OC(C)CCCCCS(N)(=O)=O)CC1OCC(CC2OC2C(C)C(C)O)C(O)C1O (centres unmarked) [Example 5, 7-Sulphamoylhept-2-yl monate A]
MIC (M. dispar NCTC 10125): 100 mg/L (≈ 192 µM)
